Measured values taken from article PMC3006138, “Fexinidazole – A New Oral Nitroimidazole Drug Candidate Entering Clinical Development for the Treatment of Sleeping Sickness” (PLoS Neglected Tropical Diseases, 2010).
Where two headings read alike, the source gives them in different places.

Assay: Rat 28-day toxicokinetics
Type: in vivo
Settings: plasma, po; for AUC: read-out: AUC within 24 hours post dosing; for half-life: read-out: apparent terminal half-life (converted)
Description: In the rat repeated-dose toxicokinetic study, fexinidazole was administered orally by gavage once a day for 28 consecutive days to ten or fifteen Crl:CD (SD)IGS BR rats/sex/group at doses of 50, 200, or 800 mg/kg/day. A control group received the vehicle alone (5% Tween 80/0.5% methocel). Ten animals/sex/group were sacrificed at the end of the treatment period on day 29 or 30 of study. The remaining 5 animals/sex/group in the control and high-dose groups were sacrificed on day 43 at the end of a 2-weeks observation period. Systemic exposure to fexinidazole and its sulfoxide and sulfone metabolites was evaluated in three additional animals/sex/group. Samples were taken at predose, and 30 min, 1, 2, 4, 8 and 24 h after dosing on days 1, 14, and 28, and in addition at 48 and 72 h after treatment on day 28.
Toxicokinetic Report for the study No. 0504-2007
SD Standard deviation of the mean […]
t1/2,z Terminal half-life tmax Time to peak plasma concentration
ULOQ Upper limit of quantification
The study was conducted according to the study protocol and related amendment.
Fexinidazole was orally given by gavage once a day for 28 days to male and female Sprague Dawley rats according to the following scheme
Fexinidazole was suspended with 5% Tween 80 in 0.5% Methyl cellulose 400 cP.
6.2. Sample Collection and Handling
Blood samples (about 0.25 mL/sampling time) were withdrawn from retro-orbital sinus plexus under isofluorane anesthesia and put in heparinized plastic tubes kept on a ice-water bath, then centrifuged for 10 min at 1200g at +4°C and two aliquots of about 50 μL of plasma were stored in a freezer at -80°C until analysis. Blood was taken from three rats/gender/dose on Days 1 and 14 at pre-dose and 0.5, 1, 2, 4, 8 and 24 hours after dosing, on Day 28 at pre-dose and 1, 2, 4, 8, 24, 48 and 72 hours after dosing. After the administration of the vehicle, the samples were taken from three rats/gender at pre-dose and […]
6.3. Bioanalytical Method
Rat plasma concentrations of Fexinidazole and its sulfoxide (M1) and sulfone (M2) metabolites were determined by a validated LC/MS/MS method. The calibration range for the assay was 5-1000 ng/mL for Fexinidazole and 25-25000 ng/mL for M1 and M2.
Study samples containing analytes concentrations above the upper limit of quantitation were diluted with blank matrix prior to analysis.
6.4. Pharmacokinetic Calculations
Pharmacokinetic evaluation was carried out using non-compartmental approach with the aid […]
Excel spreadsheet (Microsoft Inc., Seattle, USA). […]
In the calculations, the undetectable concentrations between detectable ones were ignored.
After each dose level, Cmax and tmax of Fexinidazole and sulfoxide and sulfone metabolites […]
linear trapezoidal rule up to the last detectable concentration. On Day 28, since the blood […]
24 hours post dosing was calculated and denoted AUC0-24. This AUC was calculated in order to compare AUC values on Day 28 to those on Day 1 and Day 14. On Day 28, in addition, the half-life of the terminal phase, t1/2,z, was determined by linear regression analysis of the natural-log concentration vs. time curve, where t1/2,z = ln(2)/slope of the regression line.
Fexinidazole and metabolites accumulation ratios, based on Cmax (RA,Cmax), AUC0-24 (RA,AUC0-24) and AUC0-t(last) (RA,AUC0-t(last)), were calculated as the ratio between the parameters obtained on Day 14 and Day 28 to the corresponding one at Day 1. […]
pharmacokinetic parameters of each compound sorted by dose, gender and day of dosing. […]
compound are reported in Tables 1 and 2, whilst individual and mean parameters of each […]
Individual and mean (±SD, CV%) plasma
2A1 - 19A1 of Appendix 1. Individual plasma concentrations of Fexinidazole and both metabolites are plot in Figures 1 - 9, whilst the mean concentrations are plot in Figures 10 - 15. Mean normalized Cmax and AUC0-t(last) values of Fexinidazole and metabolites vs. dose are plot in Figures 16 - 21.
In-study bioanalytical validation data are reported in Appendix 2. All analytical batches met […]

[1] = Sprague Dawley (Crl:CD (SD)IGS BR), 50 mg/kg/day, Day 28, female
[2] = Sprague Dawley (Crl:CD (SD)IGS BR), 200 mg/kg/day, Day 28, female
[3] = Sprague Dawley (Crl:CD (SD)IGS BR), 200 mg/kg/day, Day 28, male
[4] = Sprague Dawley (Crl:CD (SD)IGS BR), 800 mg/kg/day, Day 28, female (n=2)
[5] = Sprague Dawley (Crl:CD (SD)IGS BR), 800 mg/kg/day, Day 28, male
[6] = Sprague-Dawley (Crl:CD (SD)IGS BR), 50 mg/kg/day, 50 mg/kg/day po, day 1
[7] = Sprague-Dawley (Crl:CD (SD)IGS BR), 50 mg/kg/day, 50 mg/kg/day po, day 14
[8] = Sprague-Dawley (Crl:CD (SD)IGS BR), 200 mg/kg/day, 200 mg/kg/day po, day 1
[9] = both sexes, Sprague-Dawley (Crl:CD (SD)IGS BR), 200 mg/kg/day, 200 mg/kg/day po, day 14
[10] = both sexes, Sprague-Dawley (Crl:CD (SD)IGS BR), 800 mg/kg/day, 800 mg/kg/day po, day 1
[11] = both sexes, Sprague-Dawley (Crl:CD (SD)IGS BR), 800 mg/kg/day, 800 mg/kg/day po, day 14

CSc1ccc(OCc2ncc([N+](=O)[O-])n2C)cc1 [Fexinidazole, 1-methyl-2-((p-(methylthio)phenoxy)methyl)-5-nitroimidazole]
AUC [1]: 1450 ± 335 ng·h/mL
half-life [1]: 5.1 ± 5.1 h
half-life (Sprague Dawley (Crl:CD (SD)IGS BR), 50 mg/kg/day, Day 28, male): 4.7 ± 1.2 h
AUC [2]: 4440 ± 514 ng·h/mL
half-life [2]: 6.3 ± 4.5 h
AUC [3]: 2330 ± 1760 ng·h/mL
half-life [3]: 8.8 ± 4.8 h
AUC [4]: 7640 ± 1780 ng·h/mL
half-life [4]: 6.7 ± 2.3 h
AUC [5]: 3170 ± 734 ng·h/mL
half-life [5]: 11 ± 2.7 h
Cmax [6]: 90 ± 70 ng/mL
Tmax [6]: 1.42 ± 1.28 h
AUC(0-t) (Sprague-Dawley (Crl:CD (SD)IGS BR), 50 mg/kg/day, 50 mg/kg/day po, day 1, read-out: AUC0-t(last)): 470 ± 340 ng·h/mL
Cmax [7]: 180 ± 140 ng/mL
Tmax [7]: 1.92 ± 1.2 h
AUC(0-t) (Sprague-Dawley (Crl:CD (SD)IGS BR), 50 mg/kg/day, 50 mg/kg/day po, day 14, read-out: AUC0-t(last)): 830 ± 540 ng·h/mL
Cmax [8]: 380 ± 280 ng/mL
Tmax [8]: 1.92 ± 1.2 h
AUC(0-t) (both sexes, Sprague-Dawley (Crl:CD (SD)IGS BR), 200 mg/kg/day, 200 mg/kg/day po, day 1, read-out: AUC0-t(last)): 2160 ± 1340 ng·h/mL
Cmax [9]: 520 ± 300 ng/mL
Tmax [9]: 2.08 ± 1.11 h
AUC(0-t) (both sexes, Sprague-Dawley (Crl:CD (SD)IGS BR), 200 mg/kg/day, 200 mg/kg/day po, day 14, read-out: AUC0-t(last)): 3020 ± 1470 ng·h/mL
Cmax [10]: 1480 ± 710 ng/mL
Tmax [10]: 1.58 ± 0.66 h
AUC(0-t) (both sexes, Sprague-Dawley (Crl:CD (SD)IGS BR), 800 mg/kg/day, 800 mg/kg/day po, day 1, read-out: AUC0-t(last)): 12800 ± 4100 ng·h/mL
Cmax [11]: 1020 ± 870 ng/mL
Tmax [11]: 3.17 ± 2.84 h
AUC(0-t) (both sexes, Sprague-Dawley (Crl:CD (SD)IGS BR), 800 mg/kg/day, 800 mg/kg/day po, day 14, read-out: AUC0-t(last)): 9290 ± 5200 ng·h/mL
Cmax (female, Sprague Dawley (Crl:CD (SD)IGS BR), 50 mg/kg, Day 1, female): 149 ± 46 ng/mL
AUC(0-t) (female, Sprague Dawley (Crl:CD (SD)IGS BR), 50 mg/kg, Day 1, female, read-out: AUC0-t(last)): 759 ± 153 ng·h/mL
Cmax (female, Sprague Dawley (Crl:CD (SD)IGS BR), 50 mg/kg/day, Day 28, female): 422 ± 358 ng/mL
AUC(0-t) (female, Sprague Dawley (Crl:CD (SD)IGS BR), 50 mg/kg/day, Day 28, female, read-out: AUC0-t(last)): 1630 ± 570 ng·h/mL
Cmax (female, Sprague Dawley (Crl:CD (SD)IGS BR), 200 mg/kg, Day 1, female): 604 ± 211 ng/mL
AUC(0-t) (female, Sprague Dawley (Crl:CD (SD)IGS BR), 200 mg/kg, Day 1, female, read-out: AUC0-t(last)): 3200 ± 856 ng·h/mL
Cmax (female, Sprague Dawley (Crl:CD (SD)IGS BR), 200 mg/kg/day, Day 28, female): 903 ± 87 ng/mL
AUC(0-t) (female, Sprague Dawley (Crl:CD (SD)IGS BR), 200 mg/kg/day, Day 28, female, read-out: AUC0-t(last)): 4750 ± 508 ng·h/mL
Cmax (female, Sprague Dawley (Crl:CD (SD)IGS BR), 800 mg/kg, Day 1, female): 1480 ± 200 ng/mL
AUC(0-t) (female, Sprague Dawley (Crl:CD (SD)IGS BR), 800 mg/kg, Day 1, female, read-out: AUC0-t(last)): 15700 ± 3610 ng·h/mL
Cmax (female, Sprague Dawley (Crl:CD (SD)IGS BR), 800 mg/kg/day, Day 28, female (n=2)): 749 ± 90 ng/mL
AUC(0-t) (female, Sprague Dawley (Crl:CD (SD)IGS BR), 800 mg/kg/day, Day 28, female (n=2), read-out: AUC0-t(last)): 7940 ± 2210 ng·h/mL
Cmax (male, Sprague Dawley (Crl:CD (SD)IGS BR), 50 mg/kg, Day 1, male): 39 ± 17 ng/mL
AUC(0-t) (male, Sprague Dawley (Crl:CD (SD)IGS BR), 50 mg/kg, Day 1, male, read-out: AUC0-t(last)): 178 ± 99 ng·h/mL
Cmax (male, Sprague Dawley (Crl:CD (SD)IGS BR), 50 mg/kg/day, Day 28, male): 133 ± 24 ng/mL
AUC(0-t) (male, Sprague Dawley (Crl:CD (SD)IGS BR), 50 mg/kg/day, Day 28, male, read-out: AUC0-t(last)): 889 ± 287 ng·h/mL
Cmax (male, Sprague Dawley (Crl:CD (SD)IGS BR), 200 mg/kg, Day 1, male): 165 ± 97 ng/mL
AUC(0-t) (male, Sprague Dawley (Crl:CD (SD)IGS BR), 200 mg/kg, Day 1, male, read-out: AUC0-t(last)): 1120 ± 708 ng·h/mL
Cmax (male, Sprague Dawley (Crl:CD (SD)IGS BR), 200 mg/kg/day, Day 28, male): 255 ± 136 ng/mL
AUC(0-t) (male, Sprague Dawley (Crl:CD (SD)IGS BR), 200 mg/kg/day, Day 28, male, read-out: AUC0-t(last)): 4410 ± 3980 ng·h/mL
Cmax (male, Sprague Dawley (Crl:CD (SD)IGS BR), 800 mg/kg, Day 1, male): 1480 ± 1110 ng/mL
AUC(0-t) (male, Sprague Dawley (Crl:CD (SD)IGS BR), 800 mg/kg, Day 1, male, read-out: AUC0-t(last)): 10000 ± 2160 ng·h/mL
Cmax (male, Sprague Dawley (Crl:CD (SD)IGS BR), 800 mg/kg/day, Day 28, male): 523 ± 127 ng/mL
AUC(0-t) (male, Sprague Dawley (Crl:CD (SD)IGS BR), 800 mg/kg/day, Day 28, male, read-out: AUC0-t(last)): 11900 ± 5360 ng·h/mL
